Laboratory results as given in US20070154579A1, “Morinda Citrifolia Based Formulation And Methods For Weight Management” (priority 2005, published 2007).
Entries after “also recorded” stand apart in the source; their conditions may differ. Where two headings read alike, the source gives them in different places. Square brackets hold non-standard residues; d marks the D form. Peptide text beside a SMILES is read from it. Nle = CCCC[C@H](N)C(=O)O; βAla = NCCC(=O)O

Key:
Bombesin BB3 [1] = biological target: T1, Bombesin BB3 (Homo sapiens, UniProt P32247); assay: Bombesin BB3 radioligand binding; settings: batch 147476; read-out: Concurrent IC50 (reference compound)
T1 construct: expressed in transfected cells; host or cells: Balb 3T3 cells
T1 sequence (P32247 1-399): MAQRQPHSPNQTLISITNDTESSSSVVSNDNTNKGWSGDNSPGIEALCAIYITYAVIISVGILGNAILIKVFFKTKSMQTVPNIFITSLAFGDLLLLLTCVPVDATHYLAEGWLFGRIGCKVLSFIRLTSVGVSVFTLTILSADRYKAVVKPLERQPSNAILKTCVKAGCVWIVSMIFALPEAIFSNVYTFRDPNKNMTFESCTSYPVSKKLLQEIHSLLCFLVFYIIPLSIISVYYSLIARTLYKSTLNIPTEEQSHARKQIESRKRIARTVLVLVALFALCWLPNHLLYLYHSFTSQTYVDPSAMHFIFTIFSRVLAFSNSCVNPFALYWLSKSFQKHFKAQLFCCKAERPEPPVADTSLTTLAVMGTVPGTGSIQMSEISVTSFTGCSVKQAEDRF
Method: The effects of juice from Morinda Citrifolia (noni) on metabolic rate were analyzed by analyzing the bombesin response. “TNJ” refers to Morinda citrifolia juice processed according to this invention and commericially available as […] NONI® juice, “Sample #100” is a Noni concentrate and “TNCMP1” refers to Morinda citrifolia evaporative concentrate. The percentage of concentration represents the concentration strength of the particular concentrate tested; that is, the strength of concentration relative to the Morinda citrifolia fruit juice from which the concentrate was obtained.
The following materials and methods were utilized in the Bombesin research.

Bombesin BB3 [2] = biological target: T1, Bombesin BB3; settings: historical value, cited from earlier work
Adrenergic β1 = Adrenergic β1 (Homo sapiens, UniProt P08588); settings: ephedrine, from research studies; cited from earlier work
Chain of Adrenergic β1 (P08588 whole entry): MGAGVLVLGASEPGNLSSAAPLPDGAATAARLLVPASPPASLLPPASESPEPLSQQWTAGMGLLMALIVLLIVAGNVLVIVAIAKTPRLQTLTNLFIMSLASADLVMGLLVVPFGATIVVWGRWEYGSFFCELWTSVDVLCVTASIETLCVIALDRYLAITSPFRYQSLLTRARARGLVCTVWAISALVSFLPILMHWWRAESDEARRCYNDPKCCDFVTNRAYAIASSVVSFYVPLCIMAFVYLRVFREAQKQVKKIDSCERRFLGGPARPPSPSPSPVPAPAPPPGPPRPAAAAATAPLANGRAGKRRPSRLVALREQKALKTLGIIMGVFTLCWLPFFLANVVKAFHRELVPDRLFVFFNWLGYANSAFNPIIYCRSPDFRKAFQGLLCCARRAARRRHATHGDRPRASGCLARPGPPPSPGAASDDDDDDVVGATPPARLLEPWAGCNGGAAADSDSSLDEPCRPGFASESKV

Adrenergic β2 = Adrenergic β2 (Homo sapiens, UniProt P07550); settings: ephedrine, from research studies; cited from earlier work
Chain of Adrenergic β2 (P07550 whole entry): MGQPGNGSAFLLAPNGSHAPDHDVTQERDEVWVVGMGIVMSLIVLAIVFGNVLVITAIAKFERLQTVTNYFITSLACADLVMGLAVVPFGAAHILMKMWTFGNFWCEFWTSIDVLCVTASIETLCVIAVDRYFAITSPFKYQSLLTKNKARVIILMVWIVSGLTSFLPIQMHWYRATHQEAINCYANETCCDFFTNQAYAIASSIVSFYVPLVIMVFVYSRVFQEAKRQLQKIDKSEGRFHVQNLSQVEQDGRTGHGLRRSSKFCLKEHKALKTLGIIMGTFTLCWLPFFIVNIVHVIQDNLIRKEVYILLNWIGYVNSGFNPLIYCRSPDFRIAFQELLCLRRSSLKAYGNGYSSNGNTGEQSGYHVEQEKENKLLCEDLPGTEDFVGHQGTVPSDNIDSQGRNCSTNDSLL

Adrenergic β3 = Adrenergic β3 (Homo sapiens, UniProt P13945); settings: ephedrine, from research studies; cited from earlier work
Chain of Adrenergic β3 (P13945 whole entry): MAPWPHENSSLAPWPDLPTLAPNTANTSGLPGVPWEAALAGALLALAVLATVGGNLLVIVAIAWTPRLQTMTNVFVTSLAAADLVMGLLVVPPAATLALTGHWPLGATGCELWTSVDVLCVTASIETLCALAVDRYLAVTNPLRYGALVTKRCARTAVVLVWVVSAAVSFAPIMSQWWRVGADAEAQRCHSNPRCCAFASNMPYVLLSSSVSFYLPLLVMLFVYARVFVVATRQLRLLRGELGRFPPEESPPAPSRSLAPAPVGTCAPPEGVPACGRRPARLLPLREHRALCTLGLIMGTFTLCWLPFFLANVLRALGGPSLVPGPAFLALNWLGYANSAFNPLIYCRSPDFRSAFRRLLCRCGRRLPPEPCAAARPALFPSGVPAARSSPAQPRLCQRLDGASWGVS

Bombesin BB1 = Bombesin BB1 (Homo sapiens, UniProt P28336); settings: historical value, Hill coefficient; cited from earlier work
Chain of Bombesin BB1 (P28336 whole entry): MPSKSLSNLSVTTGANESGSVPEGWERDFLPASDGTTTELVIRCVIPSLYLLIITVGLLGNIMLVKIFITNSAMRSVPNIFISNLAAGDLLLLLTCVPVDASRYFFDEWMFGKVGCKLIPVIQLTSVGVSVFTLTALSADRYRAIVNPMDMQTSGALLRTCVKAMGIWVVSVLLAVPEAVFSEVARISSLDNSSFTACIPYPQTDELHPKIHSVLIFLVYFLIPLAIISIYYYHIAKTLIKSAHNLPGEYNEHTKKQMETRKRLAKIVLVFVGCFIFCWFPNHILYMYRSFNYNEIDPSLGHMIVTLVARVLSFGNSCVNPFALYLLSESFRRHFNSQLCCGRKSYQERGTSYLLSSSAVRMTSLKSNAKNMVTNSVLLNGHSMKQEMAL

Somatostatin sst5 = Somatostatin sst5 (Homo sapiens, UniProt P35346); settings: historical value, Hill coefficient; cited from earlier work
Chain of Somatostatin sst5 (P35346 whole entry): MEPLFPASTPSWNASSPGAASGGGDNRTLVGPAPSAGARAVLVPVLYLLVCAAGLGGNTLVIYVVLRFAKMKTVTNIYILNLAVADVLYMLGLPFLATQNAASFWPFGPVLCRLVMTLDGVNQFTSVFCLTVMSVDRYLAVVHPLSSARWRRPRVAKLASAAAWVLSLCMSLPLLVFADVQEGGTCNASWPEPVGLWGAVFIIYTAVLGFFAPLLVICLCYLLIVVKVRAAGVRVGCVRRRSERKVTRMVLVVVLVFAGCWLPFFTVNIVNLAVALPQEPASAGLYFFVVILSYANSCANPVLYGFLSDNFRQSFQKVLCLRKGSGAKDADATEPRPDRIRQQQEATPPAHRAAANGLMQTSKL

CCCC[C@H](NC(=O)[C@H](Cc1ccccc1)NC(=O)[C@H](Cc1c[nH]cn1)NC(=O)CCNC(=O)[C@@H](NC(=O)[C@H](C)NC(=O)[C@H](Cc1c[nH]c2ccccc12)NC(=O)[C@H](CCC(N)=O)NC(=O)[C@H](N)Cc1ccccc1)C(C)C)C(N)=O [(D-Phe^6, β-Ala^11, Phe^13, Nle^14)-BN (6-14)] (H-[dF]QWAV[βAla]HF[Nle]-NH2; N-terminus and C-terminus assumed)
IC50 (Bombesin BB3 [1]): 5.99 nM | Historical nH (reference compound) (Bombesin BB3 [2]; Hill coefficient): 0.9 | IC50 (Bombesin BB3 [2]; read-out: Historical IC50 (reference compound)): 6.1 nM | Ki (Bombesin BB3 [2]; read-out: Historical Ki (reference compound)): 4.1 nM

CN[C@@H](C)[C@H](O)c1ccccc1 [ephedrine]
adrenergic β-1 response (agonist/antagonist) (Adrenergic β1): inhibits; also recorded: antagonist | adrenergic β-2 response (agonist/antagonist) (Adrenergic β2): inhibits; also recorded: antagonist | adrenergic β-3 response (agonist/antagonist) (Adrenergic β3): activating; also recorded: agonist

Neuromedin B
Historical nH (reference compound) (Bombesin BB1): 0.9

Somatostatin-14
Historical nH (reference compound; no head) (Somatostatin sst5): 0.8
